Results reported in DBAASP.
In brackets after ≈: the same amount, converted by molar mass. Several values for one entry are separate records, joined by “and”; a condition that tells them apart may be missing. Identical values can stand only once.

Columns and labels:
Assay in all cases: ≥ marks a high value that may be exact or a test limit, other limits are often not marked, values filed in µg/mL are converted to µM
[1] = test system: Escherichia coli BW25113
[2] = test system: Escherichia coli ATCC 25922
[3] = test system: Candida albicans ATCC 2002
[4] = test system: Bacillus subtilis
[5] = test system: Staphylococcus aureus ATCC 2592
[6] = test system: Pseudomonas aeruginosa ATCC 27853
[7] = test system: Staphylococcus aureus ATCC BAA-1556
[8] = test system: Shigella dysenteriae
[9] = test system: Bacillus subtilis ATCC 6633
[10] = test system: Pseudomonas aeruginosa CMCCB 10104
[11] = test system: Staphylococcus epidermidis RP62A
[12] = test system: Enterococcus faecalis ATCC 29212
[13] = test system: Staphylococcus aureus NCTC 8325
[14] = test system: Staphylococcus aureus USA 300
[15] = test system: Escherichia coli K-12

SMILES | MIC [1] [µM] | MIC [2] [µM] | MIC [3] [µM] | MIC [5] [µM] | further results
CC[C@H](C)[C@H](NC(=O)[C@@H]1CCCN1C(=O)[C@H](Cc1c[nH]c2ccccc12)NC(=O)[C@H](CCCN=C(N)N)NC(=O)[C@H](Cc1c[nH]c2ccccc12)NC(=O)[C@@H](N)CCCN=C(N)N)C(=O)N[C@@H](CCCN=C(N)N)C(=O)N[C@@H](CCCN=C(N)N)C(=O)N1CCC[C@H]1C(=O)N1CCC[C@H]1C(=O)N[C@H](C(=O)N[C@@H](CCCN=C(N)N)C(=O)N1CCC[C@H]1C(=O)N1CCC[C@H]1C(=O)N[C@@H](Cc1ccccc1)C(=O)N[C@@H](Cc1ccc(O)cc1)C(=O)N1CCC[C@H]1C(=O)O)[C@@H](C)CC [RWRWPIRRPPIRPPFYP] | 8 (≈ 18.3 µg/mL) |  |  |  | 
CC[C@H](C)[C@H](NC(=O)[C@H](C)NC(=O)CNC(=O)[C@@H](NC(=O)[C@@H](NC(=O)[C@@H](NC(=O)CNC(=O)[C@@H](NC(=O)[C@@H](NC(=O)[C@@H](NC(=O)[C@H](C)NC(=O)[C@H](Cc1ccccc1)NC(=O)[C@H](CC(C)C)NC(=O)[C@H](CCCN=C(N)N)NC(=O)[C@H](CCCN=C(N)N)NC(=O)[C@H](CC(C)C)NC(=O)CNC(=O)CNC(=O)[C@@H](NC(=O)[C@@H](N)Cc1ccccc1)[C@@H](C)CC)[C@@H](C)O)C(C)C)C(C)C)[C@@H](C)O)C(C)C)C(C)C)C(=O)N[C@@H](CC(N)=O)C(=O)N[C@@H](CCCCN)C(=O)N[C@@H](CC(C)C)C(=O)NCC(=O)NCC(=O)NCC(=O)O [FIGGLRRLFATVVGTVVGAINKLGGG] |  | 4.86 (≈ 12.5 µg/mL) | 2.45 (≈ 6.3 µg/mL) | 4.86 (≈ 12.5 µg/mL) | MIC [4]: ≥ 38.9 µM; MIC [6]: 8 µM (≈ 20.6 µg/mL)
CC[C@H](C)[C@H](NC(=O)[C@@H]1CCCN1C(=O)[C@H](CCCN=C(N)N)NC(=O)[C@H](CCCN=C(N)N)NC(=O)[C@H](CCCN=C(N)N)NC(=O)[C@H](Cc1c[nH]c2ccccc12)NC(=O)[C@@H]1CCCN1C(=O)[C@H](CCCN=C(N)N)NC(=O)[C@H](CCCN=C(N)N)NC(=O)[C@H](CCCN=C(N)N)NC(=O)[C@@H](N)CCCN=C(N)N)C(=O)N[C@@H](CCCN=C(N)N)C(=O)N1CCC[C@H]1C(=O)N1CCC[C@H]1C(=O)N[C@@H](Cc1ccccc1)C(=O)N[C@@H](Cc1ccc(O)cc1)C(=O)N[C@@H](Cc1c[nH]c2ccccc12)C(=O)O [RRRRPWRRRPIRPPFYW] | 8 (≈ 19.6 µg/mL) |  |  |  | 
CC(C)C[C@H](NC(=O)[C@H](Cc1c[nH]c2ccccc12)NC(=O)[C@H](Cc1c[nH]c2ccccc12)NC(=O)[C@H](CC(C)C)NC(=O)[C@H](Cc1c[nH]c2ccccc12)NC(=O)[C@H](Cc1c[nH]c2ccccc12)NC(=O)[C@H](CC(C)C)NC(=O)[C@H](Cc1c[nH]c2ccccc12)NC(=O)[C@@H](N)Cc1c[nH]c2ccccc12)C(N)=O [WWLWWLWWL] |  |  |  |  | MIC [7]: ≥ 100 µM
CC[C@H](C)[C@H](NC(=O)[C@H](Cc1c[nH]c2ccccc12)NC(=O)[C@H](CCCN=C(N)N)NC(=O)[C@H](C)NC(=O)[C@H](Cc1c[nH]c2ccccc12)NC(=O)[C@@H](N)CCCCN)C(=O)N[C@@H](CCCN=C(N)N)C(=O)N[C@@H](Cc1c[nH]c2ccccc12)C(=O)N[C@@H](CC(C)C)C(N)=O [KWARWIRWL] |  |  |  |  | MIC [7]: 12.5 µM (≈ 16.4 µg/mL)
CC(C)C[C@H](NC(=O)[C@H](CC(C)C)NC(=O)[C@H](CCCCN)NC(=O)[C@H](CCCCN)NC(=O)[C@H](CC(C)C)NC(=O)[C@H](CC(C)C)NC(=O)[C@H](CC(C)C)NC(=O)[C@H](CC(C)C)NC(=O)[C@@H](N)CC(C)C)C(N)=O [LLLLLKKLL] |  |  |  |  | MIC [7]: ≥ 100 µM
CC[C@H](C)[C@H](NC(=O)[C@@H]1CCCN1C(=O)[C@H](Cc1ccccc1)NC(=O)[C@@H](N)Cc1ccccc1)C(=O)N[C@H](C(=O)NCC(=O)N[C@@H](CCCCN)C(=O)N[C@@H](CCCN=C(N)N)C(=O)N[C@@H](CC(C)C)C(=O)N[C@@H](Cc1ccc(O)cc1)C(=O)NCC(=O)N[C@@H](CC(C)C)C(=O)N[C@@H](CC(C)C)C(N)=O)C(C)C [FFPIVGKRLYGLL] |  | 46 (≈ 70 µg/mL) | 24.6 (≈ 37.5 µg/mL) | 3.09 (≈ 4.7 µg/mL) | MIC [8]: 12.3 µM (≈ 18.7 µg/mL); MIC [9]: 6.16 µM (≈ 9.37 µg/mL)
CC[C@H](C)[C@H](N)C(=O)N[C@@H](CC(C)C)C(=O)NCC(=O)N1CCC[C@H]1C(=O)N[C@H](C(=O)N[C@H](C(=O)N[C@@H](CO)C(=O)N[C@H](C(=O)N[C@H](C(=O)NCC(=O)NCC(=O)N[C@H](C(=O)N[C@@H](CC(C)C)C(=O)NCC(=O)NCC(=O)N[C@@H](CC(C)C)C(=O)N[C@@H](CC(C)C)C(=O)N[C@@H](CCCCN)C(=O)N[C@@H](CC(N)=O)C(=O)N[C@@H](CC(C)C)C(N)=O)C(C)C)[C@@H](C)CC)[C@@H](C)O)[C@@H](C)CC)C(C)C [ILGPVISTIGGVLGGLLKNL] |  | 4.65 (≈ 9 µg/mL) | 2.33 (≈ 4.5 µg/mL) | 2.33 (≈ 4.5 µg/mL) | MIC [10]: 4.65 µM (≈ 9 µg/mL)
CC[C@H](C)[C@H](NC(=O)[C@@H](NC(=O)[C@@H]1CCCN1C(=O)[C@H](CC(C)C)NC(=O)[C@@H](N)Cc1ccccc1)[C@@H](C)CC)C(=O)NCC(=O)N[C@@H](CCC(N)=O)C(=O)N[C@@H](CC(C)C)C(=O)N[C@@H](CC(C)C)C(=O)N[C@@H](CO)C(=O)NCC(=O)N[C@@H](CC(C)C)C(=O)N[C@@H](CC(C)C)C(N)=O [FLPIIGQLLSGLL] |  |  |  |  | MIC [11]: ≥ 80 µM; MIC [12]: > 80 µM; MIC [13]: ≥ 80 µM
CC[C@H](C)[C@H](NC(=O)[C@H](CCCN=C(N)N)NC(=O)[C@@H](N)CCCN=C(N)N)C(=O)N[C@@H](CCCN=C(N)N)C(=O)N[C@@H](Cc1ccccc1)C(=O)N[C@@H](CCCN=C(N)N)C(=O)N1CCC[C@H]1C(=O)N1CCC[C@H]1C(=O)N[C@@H](Cc1ccc(O)cc1)C(=O)N[C@@H](CC(C)C)C(=O)N1CCC[C@H]1C(=O)N[C@@H](CCCN=C(N)N)C(=O)N1CCC[C@H]1C(=O)NCC(=O)N[C@@H](CCCN=C(N)N)C(=O)N[C@@H](CCCN=C(N)N)C(=O)O [RRIRFRPPYLPRPGRR] | 4 (≈ 8.37 µg/mL) |  |  |  | 
CC[C@H](C)[C@H](NC(=O)[C@@H]1CCCN1C(=O)[C@H](CCCN=C(N)N)NC(=O)[C@H](CCCN=C(N)N)NC(=O)[C@H](Cc1c[nH]c2ccccc12)NC(=O)[C@@H](N)CCCN=C(N)N)C(=O)N[C@@H](CCCN=C(N)N)C(=O)N[C@@H](CCCN=C(N)N)C(=O)N1CCC[C@H]1C(=O)N1CCC[C@H]1C(=O)N[C@H](C(=O)N[C@@H](CCCN=C(N)N)C(=O)N1CCC[C@H]1C(=O)N1CCC[C@H]1C(=O)N[C@@H](Cc1c[nH]c2ccccc12)C(=O)N[C@@H](Cc1ccc(O)cc1)C(=O)N1CCC[C@H]1C(=O)O)[C@@H](C)CC [RWRRPIRRPPIRPPWYP] | 8 (≈ 18.4 µg/mL) |  |  |  | 
CC(C)C[C@H](NC(=O)[C@H](CCCCN)NC(=O)[C@H](CCCN=C(N)N)NC(=O)[C@H](Cc1c[nH]c2ccccc12)NC(=O)[C@H](Cc1c[nH]c2ccccc12)NC(=O)[C@H](CCCCN)NC(=O)[C@H](CCCCN)NC(=O)[C@H](Cc1c[nH]c2ccccc12)NC(=O)[C@H](CCCN=C(N)N)NC(=O)[C@H](CCCCN)NC(=O)[C@@H](N)C(C)C)C(=O)N[C@@H](CCCCN)C(=O)N[C@@H](CCCCN)C(=O)N[C@@H](CO)C(=O)N[C@H](C(N)=O)C(C)C [VKRWKKWWRKLKKSV] |  | 9.12 (≈ 18.7 µg/mL) | 4.56 (≈ 9.38 µg/mL) | ≥ 48.6 | MIC [4]: ≥ 48.6 µM
CC[C@H](C)[C@H](NC(=O)[C@H](CCCN=C(N)N)NC(=O)[C@H](CCC(N)=O)NC(=O)[C@@H](NC(=O)[C@@H](NC(=O)[C@H](CCCN=C(N)N)NC(=O)[C@H](CCCCN)NC(=O)[C@H](Cc1ccccc1)NC(=O)CN)[C@@H](C)CC)C(C)C)C(=O)N[C@@H](CCCCN)C(=O)N[C@@H](CC(=O)O)C(=O)N[C@@H](Cc1ccccc1)C(=O)N[C@@H](CC(C)C)C(=O)N[C@@H](C)C(=O)N[C@@H](CC(N)=O)C(=O)N[C@@H](CC(C)C)C(=O)N[C@H](C(N)=O)C(C)C [GFKRIVQRIKDFLANLV] |  |  |  |  | MIC [14]: 7.5 µM and 3.1 µM; MIC [15]: 15 µM (≈ 30.2 µg/mL)
